# Calls of active or inactive are those of the source. The calls are words filed in the database; no cut-off is given here.
# Biological target: Voltage-gated inwardly rectifying potassium channel KCNH2 (Homo sapiens, UniProt Q12809)
# Experiment: Inhibition of hERG
# Format: toxicity
# Conditions: not given
# Voltage-gated inwardly rectifying potassium channel KCNH2, sequence (Q12809 whole entry): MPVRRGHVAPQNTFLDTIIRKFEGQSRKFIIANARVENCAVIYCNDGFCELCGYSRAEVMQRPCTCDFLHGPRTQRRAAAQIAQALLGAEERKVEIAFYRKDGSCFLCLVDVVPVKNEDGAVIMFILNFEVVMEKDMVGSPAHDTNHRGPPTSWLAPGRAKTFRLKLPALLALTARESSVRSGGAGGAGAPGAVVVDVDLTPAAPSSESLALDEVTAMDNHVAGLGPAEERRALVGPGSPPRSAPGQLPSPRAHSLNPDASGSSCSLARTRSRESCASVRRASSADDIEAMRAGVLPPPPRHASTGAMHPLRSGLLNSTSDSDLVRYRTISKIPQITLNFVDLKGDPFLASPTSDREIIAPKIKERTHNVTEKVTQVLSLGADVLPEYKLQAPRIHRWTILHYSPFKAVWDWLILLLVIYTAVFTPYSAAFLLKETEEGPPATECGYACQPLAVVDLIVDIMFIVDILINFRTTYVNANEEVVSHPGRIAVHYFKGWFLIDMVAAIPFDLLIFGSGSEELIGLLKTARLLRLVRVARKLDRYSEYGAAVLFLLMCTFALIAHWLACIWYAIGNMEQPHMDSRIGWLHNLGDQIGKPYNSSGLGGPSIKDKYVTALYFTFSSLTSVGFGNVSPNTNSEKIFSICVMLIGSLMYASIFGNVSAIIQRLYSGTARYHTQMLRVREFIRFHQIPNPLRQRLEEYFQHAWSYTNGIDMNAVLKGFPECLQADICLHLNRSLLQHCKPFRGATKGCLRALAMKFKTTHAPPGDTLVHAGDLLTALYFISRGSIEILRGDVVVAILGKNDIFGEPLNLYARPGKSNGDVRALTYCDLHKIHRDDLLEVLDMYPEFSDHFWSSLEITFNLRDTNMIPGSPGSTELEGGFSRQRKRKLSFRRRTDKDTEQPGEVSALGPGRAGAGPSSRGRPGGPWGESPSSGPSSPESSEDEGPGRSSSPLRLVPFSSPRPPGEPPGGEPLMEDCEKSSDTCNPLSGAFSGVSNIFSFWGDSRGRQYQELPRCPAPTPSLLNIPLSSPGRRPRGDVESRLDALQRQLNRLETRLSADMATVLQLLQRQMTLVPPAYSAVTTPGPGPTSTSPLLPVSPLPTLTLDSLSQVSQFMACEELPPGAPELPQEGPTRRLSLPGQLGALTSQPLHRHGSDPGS
row,SMILES,IC50 [µM]
1,COc1ccc(C(=O)C2CCN(C(=O)c3ccc(C(=O)NC4CCN(Cc5ccc(C#N)cc5)CC4)cn3)CC2)cc1,4.7

# Tested on: not listed separately
# Experiment: Activation of AMPK in human HepG2 cells incubated for 2 hrs
# Format: cell-based
# Conditions: HepG2, 2 h
row,EC50 [nM],SMILES
1,25,COc1ccc(CN2CCC(NC(=O)c3cnc(C(=O)N4CCC(C(=O)c5ccc(OC)cc5)CC4)cc3C)CC2)cc1
2,78,COCCN(C(=O)c1ccc(C(=O)N2CCC(C(=O)c3ccc(OC)cc3)CC2)nc1)C1CCN(Cc2ccc(C#N)cc2)CC1
3,62,COc1ccc(C(=O)C2CCN(C(=O)c3ccc(C(=O)N[C@H]4CCN(Cc5ccc(C#N)cc5)C[C@@H]4F)cn3)CC2)cc1 (relative stereo)
4,31,COc1ccc(C(=O)C2CCN(C(=O)c3ccc(C(=O)NC4CCN(Cc5ccc(C#N)cc5)CC4)cn3)CC2)cc1

# Biological target: 5'-AMP-activated protein kinase
# Experiment: Activation of AMPK in mouse C2C12 cells incubated for 2 hrs
# Format: cell-based
# Conditions: not given
row,EC50 [µM],SMILES
1,0.084,COc1ccc(CN2CCC(NC(=O)c3cnc(C(=O)N4CCC(C(=O)c5ccc(OC)cc5)CC4)cc3C)CC2)cc1
2,0.654,COCCN(C(=O)c1ccc(C(=O)N2CCC(C(=O)c3ccc(OC)cc3)CC2)nc1)C1CCN(Cc2ccc(C#N)cc2)CC1
3,0.161,COc1ccc(C(=O)C2CCN(C(=O)c3ccc(C(=O)N[C@H]4CCN(Cc5ccc(C#N)cc5)C[C@@H]4F)cn3)CC2)cc1 (relative stereo)
4,0.137,COc1ccc(C(=O)C2CCN(C(=O)c3ccc(C(=O)NC4CCN(Cc5ccc(C#N)cc5)CC4)cn3)CC2)cc1

# Tested on: HepG2
# Experiment: Inhibition of mitochondrial function in human HepG2 cells assessed as reduction in ATP production
# Format: functional, cell-based
# Conditions: not given
row,IC50 [nM],SMILES
1,3370,COc1ccc(CN2CCC(NC(=O)c3cnc(C(=O)N4CCC(C(=O)c5ccc(OC)cc5)CC4)cc3C)CC2)cc1
2,1470,COCCN(C(=O)c1ccc(C(=O)N2CCC(C(=O)c3ccc(OC)cc3)CC2)nc1)C1CCN(Cc2ccc(C#N)cc2)CC1
3,1170,COc1ccc(C(=O)C2CCN(C(=O)c3ccc(C(=O)N[C@H]4CCN(Cc5ccc(C#N)cc5)C[C@@H]4F)cn3)CC2)cc1 (relative stereo)
4,2820,COc1ccc(C(=O)C2CCN(C(=O)c3ccc(C(=O)NC4CCN(Cc5ccc(C#N)cc5)CC4)cn3)CC2)cc1

# Biological target: hERG (KCNH2) (Homo sapiens, UniProt Q12809)
# Sequence (Q12809 whole entry): as above
# Experiment: Inhibition of hERG at 10 uM relative to control
# Format: toxicity
# Conditions: not given
row,SMILES,inhibition at 10 µM [%]
1,COc1ccc(CN2CCC(NC(=O)c3cnc(C(=O)N4CCC(C(=O)c5ccc(OC)cc5)CC4)cc3C)CC2)cc1,62.5
2,COCCN(C(=O)c1ccc(C(=O)N2CCC(C(=O)c3ccc(OC)cc3)CC2)nc1)C1CCN(Cc2ccc(C#N)cc2)CC1,26.5
3,COc1ccc(C(=O)C2CCN(C(=O)c3ccc(C(=O)N[C@H]4CCN(Cc5ccc(C#N)cc5)C[C@@H]4F)cn3)CC2)cc1 (relative stereo),69.2

# Biological target: T1, Cytochrome P450 3A4 (Homo sapiens, UniProt P08684)
# T1 sequence (P08684 whole entry): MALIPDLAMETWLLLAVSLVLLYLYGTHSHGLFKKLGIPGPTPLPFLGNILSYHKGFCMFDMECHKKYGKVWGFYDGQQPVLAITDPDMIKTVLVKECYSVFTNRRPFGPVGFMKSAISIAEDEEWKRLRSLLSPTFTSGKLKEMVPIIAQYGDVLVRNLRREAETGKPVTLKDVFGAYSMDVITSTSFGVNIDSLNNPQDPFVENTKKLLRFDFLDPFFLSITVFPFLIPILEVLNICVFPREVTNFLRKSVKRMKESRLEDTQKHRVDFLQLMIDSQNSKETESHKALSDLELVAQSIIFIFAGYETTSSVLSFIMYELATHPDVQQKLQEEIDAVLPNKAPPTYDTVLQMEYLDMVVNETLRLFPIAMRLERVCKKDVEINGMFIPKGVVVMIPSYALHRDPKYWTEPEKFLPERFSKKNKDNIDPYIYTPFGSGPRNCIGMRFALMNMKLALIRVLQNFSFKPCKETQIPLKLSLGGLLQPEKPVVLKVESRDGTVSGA
# Experiment: Inhibition of CYP3A4 (unknown origin)
# Format: ADME
# Conditions: not given
row,IC50 [µM],SMILES
1,> 10,COc1ccc(C(=O)C2CCN(C(=O)c3ccc(C(=O)N[C@H]4CCN(Cc5ccc(C#N)cc5)C[C@@H]4F)cn3)CC2)cc1 (relative stereo)
2,> 10,COc1ccc(C(=O)C2CCN(C(=O)c3ccc(C(=O)NC4CCN(Cc5ccc(C#N)cc5)CC4)cn3)CC2)cc1

# Biological target: T1, Cytochrome P450 3A4
# Experiment: Inhibition of CYP3A4 (unknown origin) in presence of NADPH
# Format: ADME
# Conditions: not given
row,IC50 [µM],SMILES
1,> 10,COc1ccc(C(=O)C2CCN(C(=O)c3ccc(C(=O)N[C@H]4CCN(Cc5ccc(C#N)cc5)C[C@@H]4F)cn3)CC2)cc1 (relative stereo)
2,> 10,COc1ccc(C(=O)C2CCN(C(=O)c3ccc(C(=O)NC4CCN(Cc5ccc(C#N)cc5)CC4)cn3)CC2)cc1

# Tested on: not listed separately
# Experiment: Microsomal stability in rat liver microsome assessed as half life
# Format: ADME
# Conditions: liver microsomes
row,half-life [min],SMILES
1,55,COc1ccc(CN2CCC(NC(=O)c3cnc(C(=O)N4CCC(C(=O)c5ccc(OC)cc5)CC4)cc3C)CC2)cc1
2,88,COc1ccc(C(=O)C2CCN(C(=O)c3ccc(C(=O)N[C@H]4CCN(Cc5ccc(C#N)cc5)C[C@@H]4F)cn3)CC2)cc1 (relative stereo)

# Tested on: not listed separately
# Experiment: Microsomal stability in human liver microsome assessed as half life
# Format: ADME, microsomes
# Conditions: liver microsomes
row,half-life [min],SMILES
1,283,COc1ccc(CN2CCC(NC(=O)c3cnc(C(=O)N4CCC(C(=O)c5ccc(OC)cc5)CC4)cc3C)CC2)cc1
2,114,COc1ccc(C(=O)C2CCN(C(=O)c3ccc(C(=O)N[C@H]4CCN(Cc5ccc(C#N)cc5)C[C@@H]4F)cn3)CC2)cc1 (relative stereo)

# Tested on: not listed separately
# Experiment: Clearance in rat
# Format: ADME
# Conditions: in vivo
row,clearance [mL/min/kg],SMILES
1,40,COc1ccc(CN2CCC(NC(=O)c3cnc(C(=O)N4CCC(C(=O)c5ccc(OC)cc5)CC4)cc3C)CC2)cc1
2,17,COc1ccc(C(=O)C2CCN(C(=O)c3ccc(C(=O)N[C@H]4CCN(Cc5ccc(C#N)cc5)C[C@@H]4F)cn3)CC2)cc1 (relative stereo)
3,150,COc1ccc(C(=O)C2CCN(C(=O)c3ccc(C(=O)NC4CCN(Cc5ccc(C#N)cc5)CC4)cn3)CC2)cc1

# Tested on: not listed separately
# Experiment: Dissociation constant, pKa of compound
# Format: physicochemical
# Conditions: not given
row,pKa,SMILES
1,4.9,COc1ccc(C(=O)C2CCN(C(=O)c3ccc(C(=O)N[C@H]4CCN(Cc5ccc(C#N)cc5)C[C@@H]4F)cn3)CC2)cc1 (relative stereo)
2,7.4,COc1ccc(C(=O)C2CCN(C(=O)c3ccc(C(=O)NC4CCN(Cc5ccc(C#N)cc5)CC4)cn3)CC2)cc1

# Tested on: A549
# Experiment: Cytotoxicity against human A549 cells assessed as reduction in cell growth
# Format: functional, cell-based
# Conditions: not given
row,SMILES,IC50 [µM]
1,COc1ccc(C(=O)C2CCN(C(=O)c3ccc(C(=O)N[C@H]4CCN(Cc5ccc(C#N)cc5)C[C@@H]4F)cn3)CC2)cc1 (relative stereo),> 20

# Tested on: NCI-H1299
# Experiment: Cytotoxicity against human NCI-H1299 cells assessed as reduction in cell growth
# Format: functional, cell-based
# Conditions: not given
row,SMILES,IC50 [µM]
1,COc1ccc(C(=O)C2CCN(C(=O)c3ccc(C(=O)N[C@H]4CCN(Cc5ccc(C#N)cc5)C[C@@H]4F)cn3)CC2)cc1 (relative stereo),> 20

# Tested on: not listed separately
# Experiment: Half life in rat at 5 mg/kg, po or 1 mg/kg, iv measured upto 10 hrs
# Format: ADME, organism-based
# Conditions: in vivo
row,half-life [min],SMILES
1,186,COc1ccc(C(=O)C2CCN(C(=O)c3ccc(C(=O)N[C@H]4CCN(Cc5ccc(C#N)cc5)C[C@@H]4F)cn3)CC2)cc1 (relative stereo)

# Tested on: not listed separately
# Experiment: Volume of distribution at steady state in rat at 5 mg/kg, po or 1 mg/kg, iv measured upto 10 hrs
# Format: ADME, organism-based
# Conditions: in vivo
row,Vdss [L/kg],SMILES
1,2.2,COc1ccc(C(=O)C2CCN(C(=O)c3ccc(C(=O)N[C@H]4CCN(Cc5ccc(C#N)cc5)C[C@@H]4F)cn3)CC2)cc1 (relative stereo)

# Tested on: not listed separately
# Experiment: AUC in rat at 5 mg/kg, po measured upto 10 hrs
# Format: ADME, organism-based
# Design: time < 10 hrs, dose 5 mg/kg, route po
# Conditions: in vivo
row,AUC at 10 h [ng·h/mL],SMILES
1,2350,COc1ccc(C(=O)C2CCN(C(=O)c3ccc(C(=O)N[C@H]4CCN(Cc5ccc(C#N)cc5)C[C@@H]4F)cn3)CC2)cc1 (relative stereo)

# Tested on: not listed separately
# Experiment: Oral bioavailability in rat at 5 mg/kg measured upto 10 hrs
# Format: ADME, organism-based
# Conditions: in vivo
row,bioavailability [%],SMILES
1,55,COc1ccc(C(=O)C2CCN(C(=O)c3ccc(C(=O)N[C@H]4CCN(Cc5ccc(C#N)cc5)C[C@@H]4F)cn3)CC2)cc1 (relative stereo)

# Tested on: not listed separately
# Experiment: Drug concentration in C57BL/6J mouse plasma at 10 mg/kg, po measured at 30 mins
# Format: ADME, organism-based
# Conditions: not given
row,concentration at 0.5 h [ng/mL],SMILES
1,638,COc1ccc(C(=O)C2CCN(C(=O)c3ccc(C(=O)N[C@H]4CCN(Cc5ccc(C#N)cc5)C[C@@H]4F)cn3)CC2)cc1 (relative stereo)

# Tested on: Mus musculus
# Experiment: In vivo activation of AMPK in C57BL/6J mouse assessed as increase in AMPK phosphorylation in liver at 10 mg/kg, po measured for 30 mins by Western blot analysis
# Format: functional, organism-based
# Conditions: not given
row,SMILES,Activity
1,COc1ccc(C(=O)C2CCN(C(=O)c3ccc(C(=O)N[C@H]4CCN(Cc5ccc(C#N)cc5)C[C@@H]4F)cn3)CC2)cc1 (relative stereo),Active

# Tested on: Mus musculus
# Experiment: In vivo activation of AMPK in C57BL/6J mouse assessed as increase ACC substrate level in liver at 10 mg/kg, po measured for 30 mins by Western blot analysis
# Format: functional, organism-based
# Conditions: not given
row,SMILES,Activity
1,COc1ccc(C(=O)C2CCN(C(=O)c3ccc(C(=O)N[C@H]4CCN(Cc5ccc(C#N)cc5)C[C@@H]4F)cn3)CC2)cc1 (relative stereo),Active

# Tested on: Mus musculus
# Experiment: Antidiabetic activity against po dosed db/db mouse model of type 2 diabetes assessed as improvement in glucose handling administered for 15 days and measured on day 13 by OGTT test
# Format: functional, organism-based
# Conditions: dose 10-15 mg/kg, time 13.0 day
row,SMILES,Activity
1,COc1ccc(C(=O)C2CCN(C(=O)c3ccc(C(=O)N[C@H]4CCN(Cc5ccc(C#N)cc5)C[C@@H]4F)cn3)CC2)cc1 (relative stereo),Dose-Dependent Effect

# Tested on: Mus musculus
# Experiment: Antidiabetic activity against db/db mouse model of type 2 diabetes assessed as reduction in blood glucose AUC at 15 mg/kg, po administered for 15 days and measured on day 13 by OGTT test
# Format: functional, organism-based
# Conditions: time 13.0 day
row,SMILES,Activity
1,COc1ccc(C(=O)C2CCN(C(=O)c3ccc(C(=O)N[C@H]4CCN(Cc5ccc(C#N)cc5)C[C@@H]4F)cn3)CC2)cc1 (relative stereo),Active

# Tested on: Mus musculus
# Experiment: Antidiabetic activity against po dosed db/db mouse model of type 2 diabetes assessed as reduction in blood glucose level administered for 15 days by OGTT test
# Format: functional, organism-based
# Conditions: dose 10-15 mg/kg, time 15.0 day
row,SMILES,Activity
1,COc1ccc(C(=O)C2CCN(C(=O)c3ccc(C(=O)N[C@H]4CCN(Cc5ccc(C#N)cc5)C[C@@H]4F)cn3)CC2)cc1 (relative stereo),Dose-Dependent Effect

# Tested on: Mus musculus
# Experiment: Antidiabetic activity against po dosed db/db mouse model of type 2 diabetes assessed as reduction in insulin level administered for 15 days by OGTT test
# Format: functional, organism-based
# Conditions: dose 10-15 mg/kg, time 15.0 day
row,SMILES,Activity
1,COc1ccc(C(=O)C2CCN(C(=O)c3ccc(C(=O)N[C@H]4CCN(Cc5ccc(C#N)cc5)C[C@@H]4F)cn3)CC2)cc1 (relative stereo),Dose-Dependent Effect

# From ChEMBL document CHEMBL5375990, “Optimization of Pharmacokinetic and In Vitro Safety Profile of a Series of Pyridine Diamide Indirect AMPK Activators” (J Med Chem, 2023)
